A short description of data set [1]: Clinical drug-drug interaction study in healthy volunteers (tolbutamide alone vs with relacorilant). The settings on record: for effect of relacorilant co-administration on AUC0-tz and AUCinf / reduction of Cmax on co-administration of relacorilant: 500 mg tolbutamide with 350 mg relacorilant vs tolbutamide alone; for AUC0-tz, Ratio of Geometric LSMs (%) / AUCinf, Ratio of Geometric LSMs (%) / Cmax, Ratio of Geometric LSMs (%): 100*(Test/Reference), Treatment E (with relacorilant) vs Treatment B (tolbutamide alone). How it is done:
An open-label, crossover study was conducted in healthy subjects to determine the effect of relacorilant on the plasma exposure of tolbutamide, a known substrate of CYP2C9. A single 500 mg dose of tolbutamide was administered alone and pharmacokinetic (PK) samples were collected before dosing (0 hour) and at 0.5, 1, 1.5, 2, 2.5, 3, 4, 6, 8, 12, 18, 24, 36, and 48 hours post-dose. Relacorilant (350 mg) was then administered once a day for 10 consecutive days. On the following day, a single 500 mg dose of tolbutamide was administered in combination with relacorilant 350 mg and pharmacokinetic (PK) samples were again collected at pre-dose through 48 hours post-dose at the same timepoints as described above. The plasma concentrations of tolbutamide and its metabolite, 4-hydroxy tolbutamide were evaluated by validated bioanalytical assays on each dosing occasion of tolbutamide.
• ANOVA, analysis of variance; AUCinf, AUC from time 0 extrapolated to infinity; AUC0-tz, AUC from time 0 until the time of the last measurable concentration; Cmax, maximum plasma concentration; CV %, coefficient of variation; LSM, least squares mean. • Treatment B: Single oral dose of 500 mg tolbutamide (Reference). • Treatment E: Single oral dose of 500 mg tolbutamide and 350 mg relacorilant administered on Day 15 followed by oral doses of 350 mg relacorilant administered QD on Days 16 and 17 (Test). • Parameters were ln-transformed prior to analysis. • Geometric Least Square means (LSMs) were calculated by exponentiating the LSMs from the ANOVA. • Ratio of Geometric LSMs=100*(Test/Reference); where Test is Treatment E and Reference is Treatment B.

Another data set deals with CYP2C9 (Homo sapiens, UniProt P11712). Nature of the data set: biochemical.
For data set [2] the following is noted: co-administered with CYP2C9 inhibitor sulfaphenazole, human subjects; Perkins et al. 2018; cited from earlier work.
The mark [3] stands for this setting: plasma, single oral 500 mg tolbutamide alone, healthy subjects.
The mark [4] stands for this setting: plasma, single oral 500 mg tolbutamide with 350 mg relacorilant after once-daily relacorilant, healthy subjects.

Sequence of CYP2C9 (P11712 whole entry): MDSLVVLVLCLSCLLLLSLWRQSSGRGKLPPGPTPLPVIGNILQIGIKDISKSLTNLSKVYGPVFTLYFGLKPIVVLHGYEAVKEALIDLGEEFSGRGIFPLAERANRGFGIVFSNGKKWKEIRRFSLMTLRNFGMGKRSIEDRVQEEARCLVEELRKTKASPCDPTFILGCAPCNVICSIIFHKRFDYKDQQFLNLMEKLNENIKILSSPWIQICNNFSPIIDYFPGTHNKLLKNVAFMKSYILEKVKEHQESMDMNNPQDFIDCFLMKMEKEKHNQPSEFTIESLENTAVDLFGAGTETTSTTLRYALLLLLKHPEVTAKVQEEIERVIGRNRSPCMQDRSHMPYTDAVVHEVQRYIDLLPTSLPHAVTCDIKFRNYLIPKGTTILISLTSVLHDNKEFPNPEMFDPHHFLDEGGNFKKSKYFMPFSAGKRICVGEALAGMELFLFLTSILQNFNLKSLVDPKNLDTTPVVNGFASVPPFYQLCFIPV
Method for CYP2C9: Cytochrome P450 (CYP) isoforms CYP1A2, CYP2C9, CYP2C19, CYP2D6, and CYP3A4, heterologously expressed in E. coli, were obtained from Cypex and mixed to produce a 5-CYP mix. A selective and FDA accepted substrate for each isoform was present in the reaction at a concentration around its Km.
The 5-CYP mix and a CYP substrate cocktail were added and the tubes warmed for 3 minutes whilst mixing on a BioShake IQ (37° C., 1500 rpm). NADPH (final concentration 1 mM) was added and the mixture was incubated for 10 minutes. Methanol containing an internal standard (1 μM tolbutamide) was then added to all samples, and these were mixed and placed at −20° C. for ≥1 hour to quench the reaction and allow protein to precipitate.
All samples were centrifuged (2500×g, 20 minutes, 4° C.). The supernatants were transferred to a fresh 96 well plate, compatible with an autosampler. The plate was sealed with a pre-slit silicone mat and the metabolites were analyzed by LC-MS/MS. […]
The final concentration in the assay of the 5-CYP mix was 32.5 pmol/ml for each of the enzymes evaluated (i.e., CYP1A2, CYP2C9, CYP2C19, CYP2D6, and CYP3A4). […]
The metabolites measured were: CYP1A2, 1-hydroxytacrine; CYP2C9, 4′-hydroxy diclofenac; CYP2C19, 4′-hydroxymephenytoin; CYP2D6, hydroxybufuralol; CYP3A4, 1′hydroxymidazolam. […]

With `CCCCNC(=O)NS(=O)(=O)c1ccc(CO)cc1` [4-OH Tolbutamide, 4-hydroxy tolbutamide], in data set [1], the “effect of relacorilant co-administration on AUC0-tz and AUCinf” value is recorded as “no effect”; the “reduction of Cmax on co-administration of relacorilant” value is on record as “approximately 37%”; the “AUC0-tz, Ratio of Geometric LSMs (%)” value was determined as 88.80%; the “AUCinf, Ratio of Geometric LSMs (%)” value amounted to 89.91%. Also, the “Cmax, Ratio of Geometric LSMs (%)” value in data set [1] is recorded as 63.49%. Further, in data set [1] (setting [3]), the “AUC0-tz, Geometric LSM, Reference (Day 2) Treatment B” value was 8.619 µg·h/mL; the “AUCinf, Geometric LSM, Reference (Day 2) Treatment B” value worked out at 8.954 µg·h/mL; the “Cmax, Geometric LSM, Reference (Day 2) Treatment B” value worked out at 604.3 ng/mL. Also, in data set [1] (setting [4]), the “AUC0-tz, Geometric LSM, Test (Day 15) Treatment E” value is 7.653 µg·h/mL; the “AUCinf, Geometric LSM, Test (Day 15) Treatment E” value amounted to 8.051 µg·h/mL; the “Cmax, Geometric LSM, Test (Day 15) Treatment E” value worked out at 383.6 ng/mL.
In general, IC50 refers to the midpoint of a concentration-inhibition curve. `Cn1cc(S(=O)(=O)N2CCC3=Cc4c(cnn4-c4ccc(F)cc4)C[C@]3(C(=O)c3cc(C(F)(F)F)ccn3)C2)cn1` [Relacorilant, (R)-(1-(4-fluorophenyl)-6-((1-methyl-1H-pyrazol-4-yl)sulfonyl)-4,4a,5,6,7,8-hexahydro-1H-pyrazolo[3,4-g]isoquinolin-4a-yl)(4-(trifluoromethyl)pyridine-2-yl)methanone] displayed an IC50 against CYP2C9 of 2100 nM.
Broadly, the AUC(0-inf) is total exposure, with the tail of the curve extrapolated. In general, AUC(0-t) refers to the area under the concentration-time curve up to a stated or last time point. By Cmax is commonly meant the peak of the concentration-time curve. For `CCCCNC(=O)NS(=O)(=O)c1ccc(C)cc1` [Tolbutamide, tolbutamide, reference compound], in data set [1], the “effect of relacorilant co-administration on AUC0-tz and AUCinf” value was “no effect”; the “reduction of Cmax on co-administration of relacorilant” value is “approximately 31%”; the “AUC0-tz, Ratio of Geometric LSMs (%)” value is 89.11%; the “AUCinf, Ratio of Geometric LSMs (%)” value stood at 89.54%. Also, the “Cmax, Ratio of Geometric LSMs (%)” value in data set [1] is given as 69.22%. In data set [1] (human, plasma, po, 500 mg), the AUC(0-inf) turned out to be 602 µg·h/mL, the AUC(0-t) was 579 µg·h/mL and the Cmax was 42400 ng/mL. Further, the “fold increase in plasma level of tolbutamide (AUC) with sulfaphenazole” value in data set [2] is given as “more than 5 fold”.

The values are drawn from patent publication US12616685B2, “Concomitant administration of glucocorticoid receptor modulator relacorilant and CYP2C9 substrates” (Corcept Therapeutics Incorporated, priority 2020, dated 2026).
